Results on one compound are retold here after ChEMBL document CHEMBL5365513, “Discovery of Selective Tertiary Amide Inhibitors of Cyclin-Dependent Kinase 2 (CDK2)” (ACS Med Chem Lett, 2023).

Data set [1] in a line: Half life in CD-1 mouse at 1 mg/kg, iv measured for 5 mins by LC-MS/MS analysis. The note with it: CD-1, mouse, in vivo. In kind it is ADME, organism-based.
Data set [2] can be described thus: Volume of distribution at steady state in CD-1 mouse at 1 mg/kg, iv measured for 5 mins by LC-MS/MS analysis. Format: ADME, organism-based. The note with it: CD-1, mouse, in vivo, read-out: Vdss.
A short description of data set [3]: Metabolic stability in mouse liver microsomes assessed as clearance at 1 uM incubated upto 180 mins by LC/MS-MS analysis. In kind it is ADME, Microsome.
Data set [4] is described as follows: Metabolic stability in human liver microsomes assessed as clearance at 1 uM incubated upto 180 mins by LC/MS-MS analysis. In kind it is ADME, Microsome.
In data set [5] the target is Cyclin-dependent kinase 2/cyclin E1 (Homo sapiens, UniProt P24941). Nature of the data set: Binding affinity to CDK2/Cyclin E1 (unknown origin) using Ulight-MBP as substrate assessed as inhibition constant preincubated for 30 mins followed by substrate addition measured after 90 mins in presence of ATP by TR-FRET assay. Format: protein-complex assay. A general note: TR-FRET usually uses a lanthanide donor and a delayed reading to cut background.

The nature of data set [6]: Selectivity ratio of Ki for CDK4/Cyclin D3 (unknown origin) to Ki for CDK2/Cyclin E1 (unknown origin).
The nature of data set [7]: Antiproliferative activity against human OVISE cells assessed as inhibition of cell division incubated for 16 hrs by EdU incorporation assay. In kind it is functional, cell-based.
Data set [8] is described as follows: Selectivity ratio of IC50 for human SK-OV-3 cells to IC50 for human OVISE cells. In kind it is functional.
A short description of data set [9]: Apparent permeability across apical to basolateral side in MDCK cells at 5 uM measured for 60 to 180 mins by LC-MS/MS analysis. The settings on record: dog, time 60-180 min. In kind it is ADME, cell-based, Canis lupus familiaris.
The nature of data set [10]: Lipophilicity, logD of compound at pH 7.4. Format: physicochemical. The note with it: buffer.
A further data set relates to MDR1. Nature of the data set: Efflux ratio of apparent permeability across basolateral to apical side to apical to basolateral side in MDCK-MDR1 cells at 5 uM measured for 60 to 180 mins by LC-MS/MS analysis. Format: ADME, cell-based, Canis lupus familiaris. The note with it: dog, time 60-180 min.
Data set [11] is described as follows: Kinetic solubility of compound. In kind it is physicochemical. The note with it: read-out: Kinetic_solubility.
A short description of data set [12]: Protein binding in human plasma assessed as unbound fraction incubated for 24 hrs by HPLC analysis. In kind it is ADME, cell-free.
Data set [13] can be described thus: Clearance in CD-1 mouse at 1 mg/kg, iv measured for 5 mins by LC-MS/MS analysis. Format: ADME, organism-based. The settings on record: in vivo.
A short description of data set [14]: AUC (infinity) in CD-1 mouse at 50 mg/kg, po measured for 24 hrs by LC-MS/MS analysis. In kind it is ADME, organism-based. The settings on record: in vivo. Set-up: time 24 hrs, dose 50 mg/kg, route po.
A short description of data set [15]: Oral bioavailability in CD-1 mouse at 50 mg/kg measured for 24 hrs by LC-MS/MS analysis. In kind it is ADME, organism-based. The settings on record: in vivo.
For data set [16], the target named is Cyclin-dependent kinase 1 (Homo sapiens) (UniProt P06493). Nature of the data set: Inhibition of CDK1 (unknown origin) at 0.1 uM.
Chain of Cyclin-dependent kinase 1 (Homo sapiens) (P06493 whole entry, looked up): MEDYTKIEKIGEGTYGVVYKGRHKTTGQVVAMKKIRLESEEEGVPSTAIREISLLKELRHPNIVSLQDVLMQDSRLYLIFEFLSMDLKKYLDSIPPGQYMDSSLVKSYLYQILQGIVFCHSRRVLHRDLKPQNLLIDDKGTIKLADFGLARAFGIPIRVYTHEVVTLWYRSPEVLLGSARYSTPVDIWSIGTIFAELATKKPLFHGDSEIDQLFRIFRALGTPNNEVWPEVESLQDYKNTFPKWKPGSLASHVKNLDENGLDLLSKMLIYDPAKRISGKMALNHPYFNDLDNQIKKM
Data set [17] concerns OVCAR-3. Nature of the data set: Antitumor activity against human OVCAR-3 cells xenografted in C.B-17 SCID.bg mouse assessed as tumor growth inhibition at 125 mg/kg, po qd treated for 3 days relative to control. Format: functional. The note with it: OVCAR-3, 72 h, time 3 day, read-out: TGI. A general note: Xenograft models place foreign cells or tissue in a host animal.
For data set [18], the system named is OVCAR-3. Nature of the data set: Antitumor activity against human OVCAR-3 cells xenografted in C.B-17 SCID.bg mouse assessed as tumor growth inhibition at 50 mg/kg, po bid treated for 3 days relative to control. Format: functional. The note with it: OVCAR-3, 72 h, time 3 day, read-out: TGI.

The term half-life denotes the time needed for the level to fall by half in the phase considered. The low end stands for fast loss, the high end for slow loss. For orientation: pKi means −log10 of the Ki, conventionally taken in molar units. By pIC50 is commonly meant the IC50 on a negative log10 scale, so that one unit is a factor of ten. The term Papp A→B denotes how fast a substance crosses the layer from the apical side. As a reminder, the logD is the decadic logarithm of the distribution of all forms, ionised or not, between an organic phase and buffer at a given pH. Lower therefore signals lower lipophilicity. The efflux ratio is the permeability from basolateral to apical divided by that in the opposite direction, in the common usage. For orientation: clearance means the rate of elimination divided by the concentration. Higher therefore signals a high capacity for elimination. Usually AUC(0-inf) stands for the area under the concentration-time curve extrapolated to infinity. A higher AUC(0-inf) goes with more exposure. What is called bioavailability is dose-corrected exposure relative to a reference, in per cent.

pIC50, pKi: −log10 of the molar value. ≈ marks a conversion by molar mass, not a printed value. Calls of active or inactive are those of the source.

For `CNS(=O)(=O)c1ccc(Nc2ncc3ccc(C(=O)N4C[C@@H](OC)[C@@H]4C)nc3n2)c(F)c1`, the half-life in data set [1] is 19.8 min. Further, the Vd in data set [2] was determined as 0.78 L/kg. Further, the CLhep predicted at 1 µM in [3] was 51 mL/min/kg; in data set [4] it was 9.4 mL/min/kg. Also, the pKi in data set [5] was 9.74. Also, the Ratio Ki in data set [6] stood at 178. The pIC50 in data set [7] was 7.60. Also, the “Ratio IC50” value in [8] is listed as 52. Besides, the Papp A→B at 5 µM in data set [9] is 17 ×10⁻⁶ cm/s. Besides, the logD in data set [10] was determined as 1.7. Moreover, in the data set on MDR1, the efflux ratio at 5 µM stood at 16. For the same compound, the solubility kinetic in data set [11] is 33 µM (≈ 15.2 µg/mL). In [12], the Fu was determined as 0.28%. In addition, the clearance in data set [13] is 39 mL/min/kg. The same compound came in with an AUC(0-inf) in data set [14] of 13 µM·h. Besides, the bioavailability in data set [15] came to 25%. Also, in data set [16], the inhibition result is “Active”. In addition, the inhibition in vivo at 125 mg/kg in the data set on OVCAR-3 [17] was found to be 81%. The inhibition in vivo at 50 mg/kg in the data set on OVCAR-3 [18] is 112%.
